# Experimental data reported in US10821152B2, “Methods, agents and compositions for treatment of inflammatory conditions” (Betanien Hospital, priority 2014, dated 2020).
# Non-standard residues stand in square brackets, D forms with d. Residues, ends and D or L forms follow the SMILES beside them. *: point of attachment. dPhe(4-NHCONH2) = NC(=O)Nc1ccc(C[C@@H](N)C(=O)O)cc1; Dihydroorotyl(S) = O=C1C[C@@H](C(=O)*)NC(=O)N1; dPhe(4-Cl) = N[C@H](Cc1ccc(Cl)cc1)C(=O)O; Phe(4-NH2) = Nc1ccc(C[C@H](N)C(=O)O)cc1; d2Nal = N[C@H](Cc1ccc2ccccc2c1)C(=O)O; Lys(iPr) = CC(C)NCCCC[C@H](N)C(=O)O; d3Pal = N[C@H](Cc1cccnc1)C(=O)O
# Legend:
# [1] = test system: patients with risk factors for cardiovascular disease; assay: Cardiovascular and metabolic risk factors in patients offered Degarelix; format: in vivo, human
# Text: In our patient group who were offered Degarelix, some patients had risk factors for cardiovascular disease, metabolic syndrome, lipidemia or hypoalphalipoproteinemia (low HDL). None of these patients had recently started medications prior to the GnRH antagonist that could explain the changes in blood pressure, HbA1C, fasting glucose or lipids. See Example 1 for patient information.
# patient with colitis = assay: Treatment of inflammatory bowel disease (fecal calprotectin, partial Mayo score); format: in vivo, human
# Procedure: • person, diagnosed with colitis • Inflammatory bowel disease, colitis verified on colonic biopsy sample. Patients with inflammatory colitis usually have a higher incidence of autoimmune diseases. This patient also had ankylosing spondylitis. Experimental Treatment • September 2014 received first dose of Degarelix 240 mg sc. • Received Degarelix 80 mg sc approximately every two weeks thereafter. Assessment of Response • The inflammatory bowel diseases (IBD's), Crohn's disease and ulcerative colitis, are chronic relapsing, remitting disorders. The assessment of disease activity presents challenges to clinicians. Fecal biomarkers, such as fecal calprotectin, are a non-invasive method which can be used to aid managing clinicians. Calprotectin is released extracellularly in times of cell stress or damage and can be detected within feces and thus be used as a sensitive marker of intestinal inflammation. […] Fecal calprotectin levels are elevated in patients with both Crohn's disease and ulcerative colitis 1-2. There have been several studies looking at the use of fecal calprotectin to predict or monitor response to treatment. • In a study looking at 11 patients with relapsing IBD, fecal calprotectin was analysed at inclusion and after 8 weeks of treatment. Treatment was individualized medical therapy. A normalized fecal calprotectin concentration at 8 weeks predicted a complete response in 100% of patients,3 corresponding to endoscopic mucosal healing4. It has been shown that in patients with steroid induced clinical remission fecal calprotectin levels can remain elevated5-6. […] A level of <50 mg/kg is considered normal or remission for IBD. • There is no gold standard index in the measurement of colitis disease activity in clinical trials. Due to the invasive nature of endoscopies, the Mayo non-invasive colitis assessment of response score can be used to assess treatment effect of IBD in clinical trials9-11. […] Both the partial Mayo and total Mayo score are used to assess disease activity in clinical trials13. The partial Mayo score also had good discriminatory value between subjects in remission and those with active disease14. A clinical response has been defined as a 3 point or greater change in the partial Mayo score15.
# [2] = test system: patient with spondyloarthritis; assay: Treatment of spondyloarthritis with Degarelix (BASDAI); format: in vivo, human
# Procedure: • person, diagnosed with spondyloarthritis • Fulfilled the ASAS criteria for axial radiographic spondyloarthritis. Experimental Treatment • October 2014 received first dose of Degarelix 240 mg sc. • Received Degarelix 80 mg sc every two weeks thereafter. Assessment of Response Disease activity in ankylosing spondylitis/spondyloarthritis is measured by the BASDAI (Bath Ankylosing Spondylitis Disease Activity Index^1), has been extensively validated in clinical trials^2-3, and is one of the most commonly used outcome measures in clinical trials. This is a composite index that evaluates fatigue, axial and peripheral pain, stiffness and enthesopathy. Their BASDAI was at 3.8 at baseline. In October 2014 they received their first dose of Degarelix 240 mg sc. By 2 weeks, their BASDAI had reduced to 2.9, and by 8 weeks it had reduced to 1.3, remission. At 4 months, their BASDAI continues to be low at 1.5. • Response to therapy in clinical practice is defined as improvement of 2 units or 50% on a 0-10 scale of the BASDAI, and expert opinion that the treatment should be continued. Their reduction by 4 moths was 2.3 we shall continue treatment.
# [3] = Peripheral GnRH levels by ELISA in patients with autoimmune diseases; format: in vivo, human; settings: RA Pt A
# Text: (§1) We analysed peripheral GnRH levels in patients with various autoimmune diseases using ELISA. […] Due to the nature of ELISA assays, the concentration in pg/mL should not necessarily be regarded as absolute, and may be interpreted as relative.
# peripheral GnRH = assay: as above; format: in vivo, human
# Text: as §1
# [4] = test system: patients with rheumatoid arthritis; settings: human, in vivo
# Text: They were not taking any therapies for osteoporosis during this period.
compound,measurement,setting,value
CC(=O)N[C@H](Cc1ccc2ccccc2c1)C(=O)N[C@H](Cc1ccc(Cl)cc1)C(=O)N[C@H](Cc1cccnc1)C(=O)N[C@@H](CO)C(=O)N[C@@H](Cc1ccc(NC(=O)[C@@H]2CC(=O)NC(=O)N2)cc1)C(=O)N[C@H](Cc1ccc(NC(N)=O)cc1)C(=O)N[C@@H](CC(C)C)C(=O)N[C@@H](CCCCNC(C)C)C(=O)N1CCC[C@H]1C(=O)N[C@H](C)C(N)=O [Degarelix] (Ac-[d2Nal][dPhe(4-Cl)][d3Pal]S[Phe(4-NH2)](Dihydroorotyl(S))[dPhe(4-NHCONH2)]L[Lys(iPr)]P[dA]-NH2),fasting glucose,"[1]; Patient 1, October 2014",6.3 mmol/L
same,fasting glucose,"[1]; Patient 1, September 2014",6.6 mmol/L
same,metabolic syndrome criteria,"[1]; Patient 1, after degarelix treatment",no longer fulfills the criteria for metabolic syndrome
same,HBA1c (4.3-6.1%),"[1]; Patient 1, at 8 months",5.7%
same,HBA1c (4.3-6.1%),"[1]; Patient 1, baseline",6.4%
same,blood pressure,"[1]; Patient 1, baseline",151/90
same,HBA1c (4.3-6.1%),"[1]; Patient 1, by 2 weeks",6.1%
same,fasting glucose (4.0-6.0),"[1]; Patient 4, 3 months after starting Degarelix",6.6 mmol/L
same,fasting glucose (4.0-6.0),"[1]; Patient 4, April 2014, before Degarelix",8.9 mmol/L
same,fasting glucose (4.0-6.0),"[1]; Patient 4, December 2013, before Degarelix",8.5 mmol/L
same,HBA1c (4.3-6.1%),"[1]; Patient 4, baseline",6.9%
same,HBA1c (4.3-6.1%),"[1]; Patient 4, by 1 month",6.6%
same,HBA1c (4.3-6.1%),"[1]; Patient 4, by 2 months",6.4%
same,HBA1c (4.3-6.1%),"[1]; Patient 4, by 4 months",6.2%
same,fasting glucose (4.0-6.0),"[1]; Patient 4, by 4 months",6.0 mmol/L
same,HBA1c (4.3-6.1%),"[1]; Patient 4, by 12 months",5.9%
same,HDL (1.0-2.7 mmol/L),"[1]; Patient 7, baseline September 2014",0.68 mmol/L
same,HDL (1.0-2.7 mmol/L),"[1]; Patient 7, by 1 week",0.73 mmol/L
same,HDL (1.0-2.7 mmol/L),"[1]; Patient 7, by 2 weeks",0.75 mmol/L
same,HDL (1.0-2.7 mmol/L),"[1]; Patient 7, by 3 weeks",1.13 mmo/L
same,Fecal calprotectin (<50 normal),patient with colitis; 02.10.14,"48, normal mg/kg"
same,Fecal calprotectin (<50 normal),patient with colitis; 10.01.15,"32, normal mg/kg"
same,Fecal calprotectin (<50 normal),patient with colitis; 24.09.14 (started 10 Sep. 2014),"79, high mg/kg"
same,partial Mayo score,patient with colitis; at 12 weeks,0
same,partial Mayo score,patient with colitis; baseline,3
same,BASDAI,[2]; at 4 months,1.5
same,BASDAI,[2]; baseline,3.8
same,BASDAI,[2]; by 2 weeks,2.9
same,BASDAI,[2]; by 8 weeks (remission),1.3
same,CRP,[3]; after 3 months,54 mg/L
same,DAS score,[3]; after 3 months,4.2
same,CRP,[3]; baseline,142 mg/L
same,DAS score,[3]; baseline,8.6
same,peripheral GnRH,"peripheral GnRH; Multiple Sclerosis Patient B, after 1 month",210 pg/mL
same,peripheral GnRH,"peripheral GnRH; Multiple Sclerosis Patient B, baseline",318 pg/mL
same,peripheral GnRH,"peripheral GnRH; Psoriasis Patient C, after 3 months",274 pg/mL
same,peripheral GnRH,"peripheral GnRH; Psoriasis Patient C, baseline",300 pg/mL
same,peripheral GnRH,"peripheral GnRH; RA Pt A, after 3 months, 240 mg loading, 80 mg every 2 weeks",359 pg/mL
same,peripheral GnRH,"peripheral GnRH; RA Pt A, baseline",394 pg/mL
same,bone mineral density in hips,[4],improved
